Where a name gives a salt, the structure may show the parent alone.
Tested on: guinea-pig teania coli
Assay: Pharmacological test I: calcium-antagonistic activity, inhibition of Ca++-induced contraction of isolated guinea-pig teania coli
Details: Cavia porcellus, 5 min, Ca++-free-high-K Krebs, 5 min exposure before CaCl2 (3×10^-4 M), 32° C., read-out: Calcium-antagonistic activity IC50 (concentration eliciting 50% inhibition of Ca++-induced contraction)
Description: The action potentials on the smooth muscles of uterus, teania coli and portal vein are dependent on calcium ion, and therefore these smooth muscle preparations are useful for screening of calcium antagonists. We measured the calcium-antagonistic activity of the compounds by the method using guinea-pig teania coli preparation.
Isolated guinea-pig teania coli was suspended in a organ bath filled with Krebs solution at 32° C. and bubbled with 5% carbon dioxide in oxygen. After equilibration, the muscle was washed with Ca^++ -free Krebs solution, and when the muscle had relaxed to the basal level, it was suspended in Ca^++ -free-high-K Krebs solution.
The muscle was exposed to test compounds for 5 minutes before addition of CaCl2, and the contraction induced by CaCl2 (3×10^-4 M) was recorded isotonically. The calcium-antagonistic activity was represented by the concentration of test compound which elicited 50% inhibition of Ca^++ -induced contraction (IC50).

Row | SMILES | IC50
1 | COc1ccc(OC)c(C2(CCCN(C)C3CCCCC3)Sc3ccccc3N(C)C2=O)c1 (centres unmarked) [compound 80, 3,4-Dihydro-2-(2,5-dimethoxyphenyl)-4-methyl-2-[3-(N-methylcyclohexylamino)propyl]-3-oxo-2H-1,4-benzothiazine oxalate] | 710 nM
2 | COc1ccc(OC)c(C2(CCCN(C)CCc3cc(OC)c(OC)c(OC)c3)Sc3ccccc3N(C)C2=O)c1 (centres unmarked) [compound 83, 3,4-Dihydro-2-(2,5-dimethoxyphenyl)-4-methyl-2-[3-(N-methyl-3,4,5-trimethoxyphenethylamino)propyl[-3-oxo-2H-1,4-benzothiazine oxalate] | 860 nM
3 | COc1ccc(CCN(C)CCCCOc2ccc(C3(SC)Sc4ccccc4N(C)C3=O)cc2)cc1OC (centres unmarked) [compound 103, 3,4-Dihydro-4-methyl-2-[4-[4-(N-methyl-3,4-dimethoxyphenethylamino)butoxy]phenyl]-2-methylthiol-3-oxo-2H-1,4l-benzothiazine hydrochloride] | 530 nM
4 | COc1ccc(OCCCN(C)CCc2ccc(OC)c(OC)c2)c(C2(SC)Sc3ccccc3N(C)C2=O)c1 (centres unmarked) [compound 131, 3,4-Dihydro-2-[5-methoxy-2-[3-(N-methyl-3,4-dimethoxyphenethylamino)propoxy]phenyl]-4-methyl-2-methylthio-3-oxo-2H-1,4-benzothiazine hydrochloride] | 630 nM
5 | COc1ccc(OCCCCN(C)CCc2cc(OC)c(OC)c(OC)c2)c(C2(SC)Sc3ccccc3N(C)C2=O)c1 (centres unmarked) [compound 142, 3,4-Dihydro-2-[5-methoxy-2-[4-(N-methyl-3,4,5-trimethoxyphenethylamino)butoxy]phenyl]-4-methyl-2-methylthio-3-oxo-2H-1,4-benzothiazine hydrochloride] | 630 nM
6 | COc1ccc(OCCCN(C)CCOc2ccc3c(c2)OCO3)c(C2(OC)Sc3ccccc3N(C)C2=O)c1 (centres unmarked) [compound 147, 3,4-Dihydro-2-methoxy-2-[5-methoxy-2-[3-[N-methyl-2-(3,4-methylenedioxyphenoxy)ethylamino]propoxy]phenyl]-4-methyl-3-oxo-2H-1,4-benzothiazine hydrochloride] | 420 nM
7 | COc1ccc(OCCCCN(C)CCOc2ccc3c(c2)OCO3)c(C2(OC)Sc3ccccc3N(C)C2=O)c1 (centres unmarked) [compound 148, 3,4-Dihydro-2-methoxy-2-[5-methoxy-2-[4-[N-methyl-2-(3,4-methylenedioxyphenoxy)ethylamino]butoxy]phenyl]-4-methyl-3-oxo-2H-1,4-benzothiazine hydrochloride] | 380 nM
8 | COc1ccc(OCCCCN(C)CCOc2ccc3c(c2)OCO3)c(C2(SC)Sc3ccccc3N(C)C2=O)c1 (centres unmarked) [compound 150, 3,4-Dihydro-2-[5-methoxy-2-[4-[N-methyl-2-(3,4-methylenedioxyphenoxy)ethylamino]butoxy]phenyl]-4-methyl-2-methylthio-3-oxo-2H-1,4-benzothiazine hydrochloride hemihydrate] | 890 nM
